This passage reports inhibition and fraction unbound results from ChEMBL document CHEMBL2016574, “Substituted aminopyrimidine protein kinase B (PknB) inhibitors show activity against Mycobacterium tuberculosis” (Bioorg Med Chem Lett, 2012).

Activity calls are given as the source filed them. The rule behind the calls is not given here. A value given as a limit tells only on which side of the number the result lay.

The target of series [1] is T1, Serine/threonine-protein kinase PknF (Mycobacterium tuberculosis) (UniProt P9WI75).
T1 sequence (whole entry): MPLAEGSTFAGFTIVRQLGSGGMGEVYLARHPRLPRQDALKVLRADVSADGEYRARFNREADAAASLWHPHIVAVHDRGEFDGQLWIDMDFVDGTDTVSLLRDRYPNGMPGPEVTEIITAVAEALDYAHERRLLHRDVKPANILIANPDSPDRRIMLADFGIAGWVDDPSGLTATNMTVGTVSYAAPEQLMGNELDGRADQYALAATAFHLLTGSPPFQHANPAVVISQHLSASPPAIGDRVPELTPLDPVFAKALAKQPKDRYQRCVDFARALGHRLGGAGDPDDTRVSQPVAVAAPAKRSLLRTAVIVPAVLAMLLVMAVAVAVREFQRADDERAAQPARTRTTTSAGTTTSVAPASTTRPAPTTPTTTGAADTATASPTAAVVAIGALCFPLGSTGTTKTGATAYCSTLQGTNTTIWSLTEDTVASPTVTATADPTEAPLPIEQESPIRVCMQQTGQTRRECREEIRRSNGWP
Nature of the series: Inhibition of Mycobacterium tuberculosis PknF.

The target in series [2] is Serine/threonine-protein kinase PknG (Mycobacterium tuberculosis) (UniProt P9WI73). Nature of the series: Inhibition of Mycobacterium tuberculosis PknG.
Chain of Serine/threonine-protein kinase PknG (Mycobacterium tuberculosis) (P9WI73 whole entry): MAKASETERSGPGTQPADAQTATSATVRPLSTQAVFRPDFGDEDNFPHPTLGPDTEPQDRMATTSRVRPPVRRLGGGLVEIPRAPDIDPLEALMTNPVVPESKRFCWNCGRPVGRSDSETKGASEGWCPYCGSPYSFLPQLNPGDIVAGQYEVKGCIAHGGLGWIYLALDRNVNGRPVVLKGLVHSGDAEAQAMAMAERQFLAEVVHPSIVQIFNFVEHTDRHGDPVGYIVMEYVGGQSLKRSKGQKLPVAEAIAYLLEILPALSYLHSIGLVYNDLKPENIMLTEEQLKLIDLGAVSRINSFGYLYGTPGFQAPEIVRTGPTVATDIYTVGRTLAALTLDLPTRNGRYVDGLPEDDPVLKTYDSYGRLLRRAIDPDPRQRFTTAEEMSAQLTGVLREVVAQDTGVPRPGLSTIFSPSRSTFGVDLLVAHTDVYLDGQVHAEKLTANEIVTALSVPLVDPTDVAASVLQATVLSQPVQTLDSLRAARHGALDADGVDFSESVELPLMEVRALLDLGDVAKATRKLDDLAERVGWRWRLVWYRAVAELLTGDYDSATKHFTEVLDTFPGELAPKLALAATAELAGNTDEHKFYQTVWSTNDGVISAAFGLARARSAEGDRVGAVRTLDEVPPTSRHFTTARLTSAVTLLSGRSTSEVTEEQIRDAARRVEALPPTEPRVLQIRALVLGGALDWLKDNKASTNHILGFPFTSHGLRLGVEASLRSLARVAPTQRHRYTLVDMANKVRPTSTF
Series [3] in a line: Protein binding in plasma. The series is classed as ADME, cell-free. Particulars: read-out: PPB.

Turning to `c1ccc2c(Nc3cc(C4CC4)[nH]n3)nc(-c3ccncc3)nc2c1`, the inhibition entry in series [1] and in series [2] was “Active” in each case. As to `c1ccc(-c2nc(Nc3cc(C4CC4)[nH]n3)c3ccccc3n2)cc1`, the inhibition result in series [1] and in series [2] was “Active” each time. In the case of `CN(C)CCNc1cc(Nc2cc(C3CC3)[nH]n2)nc(-c2cccc(C#N)c2)n1`, the inhibition result in series [1] and in series [2] was “Active” in each case.

As to `c1cc(Nc2cc(C3CC3)[nH]n2)nc(NCC2CC2)n1`, the inhibition entry in series [1] and in series [2] was “Active” each time. Take `CN1CCC(Nc2cc(Nc3cc(C4CC4)[nH]n3)nc(-c3ccccc3)n2)CC1`: the inhibition result in series [1] and in series [2] was “Active” each time. Turning to `COc1ccnc(Nc2cc(N3CC[C@@H](N(C)C)C3)nc(-c3ccccc3)n2)c1`, the inhibition result in series [1] and in series [2] was “Active” throughout. For `Fc1ccc(-c2nc(Nc3cc[nH]n3)c3ccccc3n2)cc1`, the inhibition entry in series [1] and in series [2] was “Active” throughout. Further, the fraction unbound in series [3] was less than 0.01. Consider `c1ccc(CNc2nccc(Nc3cc(C4CC4)[nH]n3)n2)cc1`, for which the inhibition result in series [1] and in series [2] was “Active” in each case. For the molecule `c1ccc2c(Nc3cc(C4CC4)[nH]n3)nc(NCC3CC3)nc2c1`, the inhibition entry in series [1] and in series [2] was “Active” in each case. Take `CN(C)[C@@H]1CCN(c2cc(Nc3ccccn3)nc(-c3cccc(C#N)c3)n2)C1`: the inhibition result in series [1] and in series [2] was “Active” in each case. For `CN1CCC(CNc2cc(Nc3cc(C4CC4)[nH]n3)nc(-c3cccc(S(C)(=O)=O)c3)n2)CC1`, the inhibition result in series [1] and in series [2] was “Active” each time.

As to `CS(=O)(=O)NCc1ccc(-c2nccc(Nc3cc(C4CC4)[nH]n3)n2)cc1`, the inhibition result in series [1] and in series [2] was “Active” each time.

`CS(=O)(=O)Nc1cccc(-c2nccc(Nc3cc(C4CC4)[nH]n3)n2)c1`: the inhibition entry in series [1] and in series [2] was “Active” throughout. On to `c1cncc(-c2nccc(Nc3cc(C4CC4)[nH]n3)n2)c1`, for which the inhibition result in series [1] and in series [2] was “Active” in each case. On to `Fc1ccc(-c2nccc(Nc3cc(C4CC4)[nH]n3)n2)cc1`, for which the inhibition entry in series [1] and in series [2] was “Active” in each case.

Turning to `Cc1cc(Nc2nc(-c3ccc(F)cc3)nc3ccccc23)n[nH]1`, the inhibition result in series [1] and in series [2] was “Active” throughout. Besides, the fraction unbound in series [3] was less than 0.01. In the case of `NC(=O)c1cccc(-c2nccc(Nc3cc(C4CC4)[nH]n3)n2)c1`, the inhibition entry in series [1] and in series [2] was “Active” throughout.

Regarding `Fc1ccc(-c2nc(Nc3cc(C4CC4)n[nH]3)c3ccccc3n2)cc1`, the fraction unbound in series [3] was less than 0.01.

Consider `c1cc(Nc2cc(C3CC3)[nH]n2)nc(NC2CCCC2)n1`, for which the inhibition result in series [1] and in series [2] was “Active” throughout. Regarding `Cc1cc(Nc2nc(-c3ccncc3)nc3ccccc23)n[nH]1`, the inhibition result in series [1] and in series [2] was “Active” each time.

For `CN1CCC(CNc2cc(Nc3cc(C4CC4)[nH]n3)nc(-c3ccccc3)n2)CC1`, the inhibition result in series [1] and in series [2] was “Active” throughout. For the molecule `CS(=O)(=O)c1cccc(-c2nccc(Nc3cc(C4CC4)[nH]n3)n2)c1`, the inhibition entry in series [1] and in series [2] was “Active” throughout. Take `CC(C)CCNc1nccc(Nc2cc(C3CC3)[nH]n2)n1`: the inhibition result in series [1] and in series [2] was “Active” in each case. `c1ccc(-c2nc(Nc3cc(C4CC4)[nH]n3)cc(OCCN3CCCC3)n2)cc1`: the inhibition entry in series [1] and in series [2] was “Active” in each case. For the molecule `CN(C)CCNc1cc(Nc2cc(C3CC3)[nH]n2)nc(-c2ccccc2)n1`, the inhibition result in series [1] and in series [2] was “Active” each time. `CN(C)[C@@H]1CCN(c2cc(Nc3cc(C4CC4)[nH]n3)nc(-c3ccccc3)n2)C1`: the inhibition entry in series [1] and in series [2] was “Active” in each case. In the case of `CN1CCN(c2cc(Nc3cc(C4CC4)[nH]n3)nc(-c3ccccc3)n2)CC1`, the inhibition entry in series [1] and in series [2] was “Active” throughout.

Take `c1ccc2c(Nc3cc(C4CC4)n[nH]3)nc(NCC3CC3)nc2c1`: the fraction unbound in series [3] is less than 0.01. As to `CN(C)[C@@H]1CCN(c2cc(Nc3cc(Cl)ccn3)nc(-c3ccccc3)n2)C1`, the inhibition result in series [1] and in series [2] was “Active” throughout. Take `c1ccc2c(Nc3cc(C4CC4)[nH]n3)nc(NC3CCCCC3)nc2c1`: the inhibition result in series [1] and in series [2] was “Active” each time. Also, the fraction unbound in series [3] was less than 0.01. For the molecule `CN(C)[C@@H]1CCN(c2cc(Nc3cc(C(F)(F)F)ccn3)nc(-c3cccc(C#N)c3)n2)C1`, the inhibition result in series [1] and in series [2] was “Active” in each case. Take `N#Cc1cccc(-c2nccc(Nc3cc(C4CC4)[nH]n3)n2)c1`: the inhibition result in series [1] and in series [2] was “Active” in each case. In the case of `CN1CCC(CNc2cc(Nc3cc(C4CC4)[nH]n3)nc(-c3cccc(C#N)c3)n2)CC1`, the inhibition result in series [1] and in series [2] was “Active” throughout. Regarding `c1cc(Nc2cc(C3CC3)[nH]n2)nc(NC2CCCCC2)n1`, the inhibition entry in series [1] and in series [2] was “Active” throughout. Take `Fc1cccc(CCNc2nccc(Nc3cc(C4CC4)[nH]n3)n2)c1`: the inhibition result in series [1] and in series [2] was “Active” throughout. Take `c1ccc(-c2nc(Nc3cc(C4CC4)n[nH]3)c3ccccc3n2)cc1`: the fraction unbound in series [3] was less than 0.01. Consider `CN(C)[C@@H]1CCN(c2cc(Nc3cc(C4CC4)[nH]n3)nc(-c3cccc(C#N)c3)n2)C1`, for which the inhibition entry in series [1] and in series [2] was “Active” in each case. Turning to `Clc1ccccc1CCNc1nccc(Nc2cc(C3CC3)[nH]n2)n1`, the inhibition result in series [1] and in series [2] was “Active” throughout. As for `c1ccc2c(Nc3cc(C4CC4)n[nH]3)nc(-c3ccncc3)nc2c1`, in series [3], the fraction unbound is less than 0.01.

Turning to `Fc1ccc(-c2nc(Nc3cc(C4CC4)[nH]n3)c3ccccc3n2)cc1`, the inhibition entry in series [1] and in series [2] was “Active” in each case.
